Data on ten compounds can be found in patent US20120245137A1 (Zalicus Pharmaceuticals Ltd., priority 2009, published 2012).

Like-named read-outs stand apart in the source and are kept apart here.

Holding throughout (format): cell-based
For assay [1], the target named is Human Cav 2.2 channels (Homo sapiens, UniProt Q00975). The assay is described as follows: Fluorescent assay for CaV2.2 channels using potassium depolarization (VIPR/FLIPR). Conditions: FLIPR data; for CAv2.2 IC50 Ratio closed/inact.: ratio closed/inactivated IC50. From the text: Human Cav 2.2 channels were stably expressed in HEK293 cells along with alpha2-delta and beta subunits of voltage-gated calcium channels. An inwardly rectifying potassium channel (Kir2.3) was also expressed in these cells to allow more precise control of the cell membrane potential by extracellular potassium concentration. At low bath potassium concentration, the membrane potential is relatively negative, and is depolarized as the bath potassium concentration is raised. In this way, the bath potassium concentration can be used to regulate the voltage-dependent conformations of the channels. […] After the incubation period, Cav2.2 channel opening is triggered by addition of higher concentration of potassium (70 mM final concentration) to further depolarize the cell. The degree of state-dependent block can be estimated from the inhibitory potency of compounds after incubation in different potassium concentrations.
Calcium influx through Cav 2.2 channels is determined using a calcium sensitive fluorescent dye in combination with a fluorescent plate reader. Fluorescent changes were measured with either a VIPR (Aurora Instruments) or FLIPR (Molecular Devices) plate reader.
1. Seed cells in Poly-D-Lysine Coated 96 or 384-well plate and keep in a 3rC-IO % C02 incubator overnight.
2. Remove media, wash cells with 0.2 mL (96-well plate) or 0.05 mL (384-well plate) Dulbecco's Phosphate Buffered Saline (D-PBS) with calcium & magnesium (Invitrogen; 14040).
3. Add 0.1 mL (96-well plate) or 0.05 mL (384-well plate) of 4˜M fluor-4 (Molecular Probes; F-14202) and 0.02% Pluronic acid (Molecular Probes; P-3(00) prepared in D-PBS with calcium & magnesium (Invitrogen; 14040) supplemented with 10 mM Glucose & 10 mM HepeslNaOH; pH 7.4.
4. Incubate in the dark at 25° C. for 60-70 min.
5. Remove dye, wash cells with 0.1 mL (96-well plate) or 0.06 mL (384-well plate) of 4, 12, 25, or 30 mM Potassium Pre-polarization Buffer (PPB).
6. Add 0.1 mL (96-well plate) or 0.03 mL (384-well plate) of 4, 12, 25, 30 mM PPB with or without test compound.
7. Incubate in the dark at 25° C. for 30 min
8. Read cell plate on VIPR instrument, Excitation=480 nm, Emission=535 nm.
9. With VIPR continuously reading, add 0.1 mL (96-well plate) or 0.03 mL (384-well plate) of Depolarization Buffer (DB), which is 2× the final assay concentration, to the cell plate.

The target in assay [2] is T-type calcium channel (Homo sapiens, UniProt O95180). The assay is described as follows: T-type channel blocking, FLIPR data (Table 6). Conditions: for CAv3.2 IC50 Ratio closed/inact.: CAv3.2, ratio closed/inactivated IC50. The source says:
Another method, high-throughput spectrophotometric assay, utilizes loading of the cell lines with a fluorescent dye sensitive to intracellular calcium concentration and subsequent examination of the effects of compounds on the ability of depolarization by potassium chloride or other means to alter intracellular calcium levels.

Assay [3] deals with CAv1.2 (Homo sapiens, UniProt Q13936). Briefly: FLIPR data, CAv1.2 channel blocking (Table 6).
[4] abbreviates: closed state, read-out: CAv2.2 IC50 Closed.
[5] abbreviates: inactivated state, read-out: CAv2.2 IC50 Inact.
Setting [6] is: CAv3.2, closed state, read-out: CAv3.2 IC50 Closed.
[7] abbreviates: CAv3.2, inactivated state, read-out: CAv3.2 IC50 Inact.
The mark [8] stands for this setting: closed state, read-out: CAv1.2 IC50 Closed.
Setting [9] is: inactivated state, read-out: CAv1.2 IC50 Inact.

T-type calcium channel, sequence (O95180 whole entry): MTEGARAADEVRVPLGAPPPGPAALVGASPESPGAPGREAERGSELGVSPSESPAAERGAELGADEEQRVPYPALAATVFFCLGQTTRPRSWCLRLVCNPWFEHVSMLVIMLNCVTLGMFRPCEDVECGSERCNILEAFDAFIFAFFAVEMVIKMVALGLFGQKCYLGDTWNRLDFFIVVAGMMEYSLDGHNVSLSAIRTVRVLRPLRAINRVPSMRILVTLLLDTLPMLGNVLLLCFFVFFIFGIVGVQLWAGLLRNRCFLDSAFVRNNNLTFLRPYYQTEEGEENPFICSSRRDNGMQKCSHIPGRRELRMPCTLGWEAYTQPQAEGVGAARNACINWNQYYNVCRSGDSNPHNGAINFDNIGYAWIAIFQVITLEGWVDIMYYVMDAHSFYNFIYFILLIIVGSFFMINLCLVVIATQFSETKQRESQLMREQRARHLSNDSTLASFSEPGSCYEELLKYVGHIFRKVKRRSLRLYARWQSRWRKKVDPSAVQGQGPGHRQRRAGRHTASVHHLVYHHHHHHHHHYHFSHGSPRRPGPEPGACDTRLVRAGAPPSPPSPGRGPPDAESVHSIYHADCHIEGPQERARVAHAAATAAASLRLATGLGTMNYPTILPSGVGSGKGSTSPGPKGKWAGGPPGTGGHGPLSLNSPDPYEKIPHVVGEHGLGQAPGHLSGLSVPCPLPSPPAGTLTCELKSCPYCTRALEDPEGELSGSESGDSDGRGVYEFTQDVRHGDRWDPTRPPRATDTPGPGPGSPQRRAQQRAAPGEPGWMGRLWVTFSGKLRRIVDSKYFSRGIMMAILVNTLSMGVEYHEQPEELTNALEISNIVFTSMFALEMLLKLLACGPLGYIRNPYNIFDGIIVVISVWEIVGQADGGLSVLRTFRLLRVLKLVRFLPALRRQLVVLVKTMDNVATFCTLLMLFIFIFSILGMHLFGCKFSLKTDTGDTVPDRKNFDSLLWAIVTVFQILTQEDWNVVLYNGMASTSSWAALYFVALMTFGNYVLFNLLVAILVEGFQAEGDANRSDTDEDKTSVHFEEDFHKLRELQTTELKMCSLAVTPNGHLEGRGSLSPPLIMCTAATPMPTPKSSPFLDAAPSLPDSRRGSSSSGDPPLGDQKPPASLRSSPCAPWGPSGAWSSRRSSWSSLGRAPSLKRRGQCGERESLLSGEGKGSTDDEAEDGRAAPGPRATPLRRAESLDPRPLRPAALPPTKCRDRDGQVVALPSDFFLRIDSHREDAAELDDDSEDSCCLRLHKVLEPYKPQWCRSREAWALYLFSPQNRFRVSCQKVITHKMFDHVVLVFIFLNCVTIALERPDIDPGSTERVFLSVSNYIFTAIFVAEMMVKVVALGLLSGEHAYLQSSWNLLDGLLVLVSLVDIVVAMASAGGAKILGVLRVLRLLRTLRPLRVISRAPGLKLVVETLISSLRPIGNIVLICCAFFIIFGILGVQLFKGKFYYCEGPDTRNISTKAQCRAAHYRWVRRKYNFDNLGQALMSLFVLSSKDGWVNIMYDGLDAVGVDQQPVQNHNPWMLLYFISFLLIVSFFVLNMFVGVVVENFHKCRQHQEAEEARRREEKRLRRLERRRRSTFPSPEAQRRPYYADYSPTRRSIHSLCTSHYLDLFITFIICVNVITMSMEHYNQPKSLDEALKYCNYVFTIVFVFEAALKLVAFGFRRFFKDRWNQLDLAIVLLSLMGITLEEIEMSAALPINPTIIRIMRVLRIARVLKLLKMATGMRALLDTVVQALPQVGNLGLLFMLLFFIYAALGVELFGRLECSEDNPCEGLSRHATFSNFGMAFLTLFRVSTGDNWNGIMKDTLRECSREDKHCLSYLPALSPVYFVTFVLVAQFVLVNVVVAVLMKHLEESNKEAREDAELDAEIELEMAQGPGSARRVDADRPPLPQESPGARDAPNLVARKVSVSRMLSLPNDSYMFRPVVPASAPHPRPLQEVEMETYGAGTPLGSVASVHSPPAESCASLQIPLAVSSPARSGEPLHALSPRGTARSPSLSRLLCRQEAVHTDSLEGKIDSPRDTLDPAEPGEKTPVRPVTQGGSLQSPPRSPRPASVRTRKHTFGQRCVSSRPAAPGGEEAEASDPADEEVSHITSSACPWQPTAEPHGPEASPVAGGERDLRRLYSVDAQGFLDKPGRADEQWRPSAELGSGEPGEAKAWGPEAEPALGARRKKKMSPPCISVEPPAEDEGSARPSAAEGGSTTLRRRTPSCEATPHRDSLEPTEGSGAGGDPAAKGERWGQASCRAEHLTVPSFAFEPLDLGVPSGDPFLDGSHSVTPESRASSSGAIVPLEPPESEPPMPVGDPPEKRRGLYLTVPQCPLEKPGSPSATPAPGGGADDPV

Regarding `CNC1(CC(=O)N[C@H]2C[C@@H](C(C)(C)S(=O)(=O)c3cc(F)cc(C(F)(F)F)c3)C2)CCCCC1` [Compound 658], the IC50 is 10 µM in assay [1] (setting [4]); 2.64 µM in assay [1] (setting [5]); ≥ 10 µM in assay [2] (setting [6]); 10 µM in assay [2] (setting [7]); ≥ 10 µM in assay [3] (setting [8]). Also, the “CAv2.2 IC50 Ratio closed/inact.” value in assay [1] came out at 3.8. The “CAv3.2 IC50 Ratio closed/inact.” value in assay [2] is recorded as 1.

`CNC1(CC(=O)N[C@H]2C[C@@H](C(C)(C)S(=O)(=O)c3cccc(OC(F)(F)F)c3)C2)CCCCC1` [Compound 661]: the IC50 in assay [1] (setting [4]) is 8.03 µM; in assay [1] (setting [5]) it was 1.53 µM; in assay [2] (setting [7]) it was 10 µM; in assay [3] (setting [8]), ≥ 10 µM; in assay [3] (setting [9]), ≥ 10 µM. Moreover, the “CAv2.2 IC50 Ratio closed/inact.” value in assay [1] is on record as 5.2.

`N[C@H]1CCCCC1C(=O)NC[C@H]1C[C@H](S(=O)(=O)c2cccc(OC(F)(F)F)c2)C1` (some centres unmarked) [Compound 709]: the IC50 in assay [1] (setting [4]) is 7.5 µM; in assay [1] (setting [5]) it was 2.34 µM; in assay [2] (setting [6]) it was ≥ 10 µM; in assay [2] (setting [7]), 10 µM; in assay [3] (setting [8]) it was ≥ 10 µM. The “CAv2.2 IC50 Ratio closed/inact.” value in assay [1] is 3.2. The “CAv3.2 IC50 Ratio closed/inact.” value in assay [2] is listed as 1.

With `CC(C)([C@H]1C[C@@H](NC(=O)c2ncc(C(F)(F)F)cn2)C1)S(=O)(=O)c1cccc(C(F)(F)F)c1` [Compound 583], the IC50 in assay [1] (setting [4]) was 10 µM; in assay [1] (setting [5]), 1.12 µM; in assay [2] (setting [7]), 10 µM; in assay [3] (setting [8]), ≥ 10 µM. Moreover, the “CAv2.2 IC50 Ratio closed/inact.” value in assay [1] was determined as 8.9.

Consider `CC(C)([C@H]1C[C@H](NC(=O)CC2(N)CCCCC2)C1)S(=O)(=O)c1cccc(OC(F)(F)F)c1` [Compound 656], for which the IC50 in assay [1] (setting [4]) is 5.52 µM; in assay [1] (setting [5]), 0.87 µM; in assay [2] (setting [7]) it was 10 µM; in assay [3] (setting [8]), ≥ 10 µM; in assay [3] (setting [9]), ≥ 10 µM. For the same compound, in assay [1], the “CAv2.2 IC50 Ratio closed/inact.” value is recorded as 6.3.

As to `N[C@@H]1CCCC[C@H]1C(=O)NC[C@H]1C[C@H](S(=O)(=O)c2cccc(OC(F)(F)F)c2)C1` [Compound 714], the IC50 in assay [1] (setting [4]) was 5.77 µM; in assay [1] (setting [5]), 2.29 µM; in assay [2] (setting [6]), ≥ 10 µM; in assay [2] (setting [7]) it was 10 µM; in assay [3] (setting [8]) it was ≥ 10 µM. For the same compound, the “CAv2.2 IC50 Ratio closed/inact.” value in assay [1] is 2.5. Moreover, the “CAv3.2 IC50 Ratio closed/inact.” value in assay [2] is recorded as 1.

Consider `O=C(NC[C@H]1C[C@H](S(=O)(=O)c2cccc(C(F)(F)F)c2)C1)c1ccc(Cl)cn1` [Compound 573], for which the IC50 is 3.24 µM in assay [1] (setting [4]); 0.43 µM in assay [1] (setting [5]); 8.12 µM in assay [2] (setting [6]); 5.83 µM in assay [2] (setting [7]); ≥ 10 µM in assay [3] (setting [8]); ≥ 10 µM in assay [3] (setting [9]). In assay [1], the “CAv2.2 IC50 Ratio closed/inact.” value is listed as 7.5. Moreover, the “CAv3.2 IC50 Ratio closed/inact.” value in assay [2] turned out to be 1.4.

As to `CC(C)(C[C@H]1C[C@H](NC(=O)[C@@H]2CCCC[C@H]2N)C1)S(=O)(=O)c1cccc(C(F)(F)F)c1` [Compound 728], the IC50 in assay [1] (setting [4]) was 3.64 µM; in assay [1] (setting [5]), 1.56 µM; in assay [2] (setting [7]) it was 10 µM; in assay [3] (setting [8]), ≥ 10 µM. The “CAv2.2 IC50 Ratio closed/inact.” value in assay [1] is 2.3.

`CC(C)(C[C@H]1C[C@H](NC(=O)[C@@H]2CCCC[C@@H]2N)C1)S(=O)(=O)c1cccc(C(F)(F)F)c1` [Compound 727]: the IC50 in assay [1] (setting [4]) is 4.1 µM; in assay [1] (setting [5]), 0.95 µM; in assay [2] (setting [7]), 10 µM; in assay [3] (setting [9]), ≥ 10 µM. Further, the “CAv2.2 IC50 Ratio closed/inact.” value in assay [1] is 4.3.

Regarding `CC(C)(C[C@H]1C[C@@H](NC(=O)CC2(N)CCCCC2)C1)S(=O)(=O)c1cccc(C(F)(F)F)c1` [Compound 739], the IC50 in assay [1] (setting [4]) is 2.89 µM; in assay [1] (setting [5]), 1 µM; in assay [2] (setting [6]) it was ≥ 10 µM; in assay [2] (setting [7]), 10 µM; in assay [3] (setting [8]), 8.86 µM; in assay [3] (setting [9]), ≥ 10 µM. Moreover, in assay [1], the “CAv2.2 IC50 Ratio closed/inact.” value came out at 2.9. For the same compound, in assay [2], the “CAv3.2 IC50 Ratio closed/inact.” value is recorded as 1. For the same compound, in assay [3] (ratio closed/inactivated IC50), the “CAv1.2 IC50 Ratio closed/inact.” value amounted to 0.9.
